Results taken from patent publication US20180282281A1, “IMMUNOREGULATORY AGENTS” (FLEXUS BIOSCIENCES, INC., priority 2014, published 2018).
pIC50: −log10 of the molar value.

What follows are compounds tested against T1, human IDO1 (Homo sapiens, UniProt P14902) (assay: HEK293 human IDO1 cell-based IDO inhibition assay). Conditions: read-out: HEK Human IDO-1 Potency.
T1 construct: expressed in transfected cells
Protocol: 1HEK293 cells were transfected with a pCDNA-based mammalian expression vector harboring human IDO1 cDNA (NM 002164.2) by electroporation. They were cultured in medium (DMEM with 10% FBS) containing 1 mg/ml G418 for two weeks. Clones of HEK293 cells that stably expressed human IDO1 protein were selected and expanded for IDO inhibition assay.
The human IDOL/HEK293 cells were seeded at 10,000 cells per 50 μL per well with RPMI/phenol red free media contains 10% FBS in a 384-well black wall clear bottom tissue culture plate (Matrix Technologies LLC) 100 nL of certain concentration of compound was then added to each well using ECHO liquid handling systems. The cells were incubated for 20 hours in 37° C. incubator with 5% CO2.
The compound treatments were stopped by adding Trichloroacetic Acid (Sigma-Aldrich) to a final concentration at 0.2%. The cell plate was further incubated at 50° C. for 30 minute. The equal volume supernatant (20 μL) and 0.2% (w/v) Ehrlich reagent (4-dimethylaminobenzaldehyde, Sigma-Aldrich) in glacial acetic acid were mixed in a new clear bottom 384-well plate. This plate was then incubated at room temperature for 30 minute. The absorbance at 490 nm was measured on Envision plate reader.

T1 sequence (P14902 whole entry): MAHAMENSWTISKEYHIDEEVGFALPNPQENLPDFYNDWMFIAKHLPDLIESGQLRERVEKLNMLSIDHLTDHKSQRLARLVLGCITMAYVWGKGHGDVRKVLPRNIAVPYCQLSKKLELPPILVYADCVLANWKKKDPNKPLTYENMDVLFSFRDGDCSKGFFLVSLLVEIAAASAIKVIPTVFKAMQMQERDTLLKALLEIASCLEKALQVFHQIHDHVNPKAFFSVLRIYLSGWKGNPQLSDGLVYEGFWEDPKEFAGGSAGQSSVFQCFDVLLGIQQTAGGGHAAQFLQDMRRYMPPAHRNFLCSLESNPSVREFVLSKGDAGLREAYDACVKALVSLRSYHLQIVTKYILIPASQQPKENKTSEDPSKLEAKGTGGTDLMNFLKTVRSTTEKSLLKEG

**Q.** `CC(C(=O)Nc1ccc(Cl)cc1)N1CCC(Oc2ccc3nccc(Cl)c3c2)CC1` (single isomer, unassigned) [Example 94] was tested. Which pIC50 did it give?
**A.** The pIC50 was over 6.60.

**Q.** `CC(C(=O)Nc1ccc(Cl)cc1)N1CCN(c2ccnc3ccc(F)cc23)CC1` (single isomer, unassigned) [Example 129, N-(4-Chlorophenyl)-2-(4-(6-fluoroquinolin-4-yl)piperazin-1-yl)propanamide] was tested. Which pIC50 did it give?
**A.** The pIC50 was over 6.60.

**Q.** With `CC(C(=O)Nc1ccc(Cl)cc1)N1CCN(c2ccnc3ccc(F)cc23)CC1` (single isomer, unassigned) [Example 130, N-(4-Chlorophenyl)-2-(4-(6-fluoroquinolin-4-yl)piperazin-1-yl)propanamide] as the compound, how does the pIC50 read?
**A.** Its pIC50 is under 6.60.

**Q.** `COCC(C(=O)Nc1ccc(Cl)cc1)N1CCN(c2ccnc3ccc(F)cc23)CC1` (single isomer, unassigned) [Example 135, N-(4-chlorophenyl)-2-(4-(6-fluoroquinolin-4-yl)piperazin-1-yl)-3-methoxypropanamide] was tested. Which pIC50 did it give?
**A.** The pIC50 was under 6.60.

**Q.** With `CC(C(=O)O)c1ccc(C[C@@H](C(=O)Nc2ccc(Cl)cc2)[C@H]2CC[C@@H](c3ccnc4ccc(F)cc43)CC2)cc1` (single isomer, unassigned) [Example 138] as the compound, how does the pIC50 read?
**A.** Its pIC50 is over 7.30.

**Q.** How did the pIC50 turn out when `C[C@H](C(=O)Nc1ccc(Cl)cc1)[C@H]1CC[C@@H](c2ccnc3ccnn32)CC1` (single isomer, unassigned) [Example 144a] was run?
**A.** Its pIC50 is over 7.30.

**Q.** How did the pIC50 turn out when `C[C@@H](C(=O)Nc1ccc(Cl)cc1)[C@H]1CC[C@@H](c2ccnc3ccnn32)CC1` (single isomer, unassigned) [Example 144b] was run?
**A.** The pIC50 was under 6.60.

**Q.** How did the pIC50 turn out when `C[C@H](C(=O)Nc1ccc(Cl)cc1)[C@H]1CC[C@H](c2ccnc3ccnn32)CC1` (single isomer, unassigned) [Example 144c] was run?
**A.** Its pIC50 is over 6.60.

**Q.** How did the pIC50 turn out when `C[C@@H](C(=O)Nc1ccc(Cl)cc1)[C@H]1CC[C@H](c2ccnc3ccnn32)CC1` (single isomer, unassigned) [Example 144d] was run?
**A.** Its pIC50 is under 6.60.

**Q.** `C[C@H](C(=O)Nc1ccc(Cl)cc1)[C@H]1CC[C@@H](c2ccnc3ncccc32)CC1` (single isomer, unassigned) [Example 148a] was tested. Which pIC50 did it give?
**A.** Its pIC50 is under 6.60.

**Q.** `C[C@@H](C(=O)Nc1ccc(Cl)cc1)[C@H]1CC[C@@H](c2ccnc3ncccc32)CC1` (single isomer, unassigned) [Example 148b] was tested. Which pIC50 did it give?
**A.** Its pIC50 is over 7.30.

**Q.** How did the pIC50 turn out when `C[C@H](C(=O)Nc1ccc(Cl)cc1)[C@H]1CC[C@H](c2ccnc3ncccc32)CC1` (single isomer, unassigned) [Example 148c] was run?
**A.** Its pIC50 is over 7.30.

**Q.** `C[C@@H](C(=O)Nc1ccc(Cl)cc1)[C@H]1CC[C@H](c2ccnc3ncccc32)CC1` (single isomer, unassigned) [Example 148d] was tested. Which pIC50 did it give?
**A.** Its pIC50 is over 6.60.

**Q.** With `C[C@H](C(=O)Nc1ccc(Cl)cc1)[C@H]1CC[C@@H](c2ccnc3cn[nH]c32)CC1` (single isomer, unassigned) [Example 150a] as the compound, how does the pIC50 read?
**A.** The pIC50 was over 7.30.

**Q.** How did the pIC50 turn out when `C[C@@H](C(=O)Nc1ccc(Cl)cc1)[C@H]1CC[C@@H](c2ccnc3cn[nH]c32)CC1` (single isomer, unassigned) [Example 150b] was run?
**A.** Its pIC50 is under 6.60.

**Q.** How did the pIC50 turn out when `C[C@H](C(=O)Nc1ccc(Cl)cc1)[C@H]1CC[C@H](c2ccnc3cn[nH]c32)CC1` (single isomer, unassigned) [Example 150c] was run?
**A.** Its pIC50 is under 6.60.

**Q.** How did the pIC50 turn out when `C[C@@H](C(=O)Nc1ccc(Cl)cc1)[C@H]1CC[C@H](c2ccnc3cn[nH]c32)CC1` (single isomer, unassigned) [Example 150d] was run?
**A.** Its pIC50 is over 7.30.

**Q.** How did the pIC50 turn out when `C[C@H](C(=O)Nc1ccc(Cl)cc1)[C@H]1CC[C@@H](c2ccnc3ccc(I)cc32)CC1` (single isomer, unassigned) [Example 152a] was run?
**A.** The pIC50 was over 7.30.

**Q.** `C[C@@H](C(=O)Nc1ccc(Cl)cc1)[C@H]1CC[C@@H](c2ccnc3ccc(I)cc32)CC1` (single isomer, unassigned) [Example 152b] was tested. Which pIC50 did it give?
**A.** The pIC50 was over 7.30.

**Q.** How did the pIC50 turn out when `C[C@H](C(=O)Nc1ccc(Cl)cc1)[C@H]1CC[C@H](c2ccnc3ccc(I)cc32)CC1` (single isomer, unassigned) [Example 152c] was run?
**A.** The pIC50 was over 6.60.

**Q.** How did the pIC50 turn out when `C[C@@H](C(=O)Nc1ccc(Cl)cc1)[C@H]1CC[C@H](c2ccnc3ccc(I)cc32)CC1` (single isomer, unassigned) [Example 152d] was run?
**A.** Its pIC50 is over 7.30.

**Q.** How did the pIC50 turn out when `CCCC(C(=O)Nc1ccc(Cl)cc1)N1CCN(c2ccnc3ccc(F)cc23)CC1` (single isomer, unassigned) [Example 245, N-(4-Chlorophenyl)-2-(4-(6-fluoroquinolin-4-yl)piperazin-1-yl)pentanamide] was run?
**A.** The pIC50 was over 6.60.

**Q.** With `CCCC(C(=O)Nc1ccc(Cl)cc1)N1CCN(c2ccnc3ccc(F)cc23)CC1` (single isomer, unassigned) [Example 246, N-(4-Chlorophenyl)-2-(4-(6-fluoroquinolin-4-yl)piperazin-1-yl)pentanamide] as the compound, how does the pIC50 read?
**A.** The pIC50 was under 6.60.

**Q.** How did the pIC50 turn out when `CCCC(C(=O)NC1(C)CCCCC1)N1CCN(c2ccnc3ccc(F)cc23)CC1` (single isomer, unassigned) [Example 248, 2-(4-(6-Fluoroquinolin-4-yl)piperazin-1-yl)-N-(1-methylcyclohexyl)pentanamide] was run?
**A.** Its pIC50 is under 6.60.

**Q.** With `CCCC(C(=O)NC1(C)CCCCC1)N1CCN(c2ccnc3ccc(F)cc23)CC1` (single isomer, unassigned) [Example 249, 2-(4-(6-Fluoroquinolin-4-yl)piperazin-1-yl)-N-(1-methylcyclohexyl)pentanamide] as the compound, how does the pIC50 read?
**A.** The pIC50 was over 7.30.

**Q.** How did the pIC50 turn out when `C[C@@H](C(=O)Nc1ccc(Cl)cc1)[C@H]1CC[C@@H](c2ccnc3c2ncn3C)CC1` (single isomer, unassigned) [Example 251a, N-(4-chlorophenyl)-2-(4-(3-methyl-3H-imidazo[4,5-b]pyridin-7-yl)cyclohexyl)propanamide] was run?
**A.** The pIC50 was over 7.30.

**Q.** With `C[C@@H](C(=O)Nc1ccc(Cl)cc1)[C@H]1CC[C@@H](c2ccnc3c2ncn3C)CC1` (single isomer, unassigned) [Example 251b, N-(4-chlorophenyl)-2-(4-(3-methyl-3H-imidazo[4,5-b]pyridin-7-yl)cyclohexyl)propanamide] as the compound, how does the pIC50 read?
**A.** Its pIC50 is under 6.60.

**Q.** With `C[C@@H](C(=O)Nc1ccc(Cl)cc1)[C@H]1CC[C@@H](c2ccnc3c2ncn3C)CC1` (single isomer, unassigned) [Example 251c, N-(4-chlorophenyl)-2-(4-(3-methyl-3H-imidazo[4,5-b]pyridin-7-yl)cyclohexyl)propanamide] as the compound, how does the pIC50 read?
**A.** The pIC50 was over 7.30.

**Q.** How did the pIC50 turn out when `C[C@@H](C(=O)Nc1ccc(Cl)cc1)[C@H]1CC[C@@H](c2ccnc3c2ncn3C)CC1` (single isomer, unassigned) [Example 251d, N-(4-chlorophenyl)-2-(4-(3-methyl-3H-imidazo[4,5-b]pyridin-7-yl)cyclohexyl)propanamide] was run?
**A.** The pIC50 was under 6.60.

**Q.** With `CC(C(=O)Nc1ccc(F)cc1)N1CCC(Oc2ccnc3ccc(F)cc23)CC1` (single isomer, unassigned) [compound 105] as the compound, how does the pIC50 read?
**A.** Its pIC50 is over 7.30.

**Q.** With `CC(C(=O)Nc1ccc(F)cc1)N1CCC(Oc2ccnc3ccc(F)cc23)CC1` (single isomer, unassigned) [compound 106] as the compound, how does the pIC50 read?
**A.** The pIC50 was under 6.60.

**Q.** `Cc1ccc(NC(=O)C(C)N2CCC(Oc3ccnc4ccc(F)cc34)CC2)cc1` (single isomer, unassigned) [compound 109] was tested. Which pIC50 did it give?
**A.** Its pIC50 is over 7.30.

**Q.** `Cc1ccc(NC(=O)C(C)N2CCC(Oc3ccnc4ccc(F)cc34)CC2)cc1` (single isomer, unassigned) [compound 110] was tested. Which pIC50 did it give?
**A.** The pIC50 was under 6.60.

**Q.** With `C[C@@H](C(=O)Nc1ccccc1)[C@H]1CC[C@@H](c2ccnc3ccc(F)cc32)CC1` [Example 58, (R)-2-((cis)-4-(6-fluoroquinolin-4-yl)cyclohexyl)-N-phenylpropanamide] as the compound, how does the pIC50 read?
**A.** The pIC50 was over 7.30.
